Test results published in ChEMBL document CHEMBL5233222, “Bridging free radical chemistry with drug discovery: A promising way for finding novel drugs efficiently” (Eur J Med Chem, 2020).

Experiment: Inhibition of AAPH-induced hemolysis of human erythrocytes
Assay type: functional, cell-based
Details: erythrocyte

Row | Compound | IC50 [nM]
1 | CC(C)=CCC[C@](C)(O[C@@H]1O[C@H](CO[C@@H]2O[C@H](CO)[C@@H](O)[C@H](O)[C@H]2O)[C@@H](O)[C@H](O)[C@H]1O)[C@H]1CC[C@]2(C)[C@@H]1[C@H](O)C[C@@H]1[C@@]3(C)CC[C@H](O[C@@H]4O[C@H](CO)[C@@H](O)[C@H](O)[C@H]4O[C@@H]4O[C@H](CO)[C@@H](O)[C@H](O)[C@H]4O)C(C)(C)[C@@H]3CC[C@]12C [GINSENOSIDE RB1] | 3180
2 | CC(C)=CCC[C@](C)(O[C@@H]1O[C@H](CO[C@@H]2OC[C@@H](O)[C@H](O)[C@H]2O)[C@@H](O)[C@H](O)[C@H]1O)[C@H]1CC[C@]2(C)[C@@H]1[C@H](O)C[C@@H]1[C@@]3(C)CC[C@H](O[C@@H]4O[C@H](CO)[C@@H](O)[C@H](O)[C@H]4O[C@@H]4O[C@H](CO)[C@@H](O)[C@H](O)[C@H]4O)C(C)(C)[C@@H]3CC[C@]12C [GINSENOSIDE RB3] | 2650
